Measurements: ChEMBL document CHEMBL3425436, “Assessing the oral bioavailability of difluorosialic acid prodrugs, potent viral neuraminidase inhibitors, using a snapshot PK screening assay” (Bioorg Med Chem Lett, 2015)

Assays:
[1] = Total plasma concentration in CD1 mouse at 30 mg/kg, po measured at 20 mins by reversed-phase UPLC/MS analysis; assay type: ADME, organism-based; design: dose 30 mg/kg, route oral
[2] = Total plasma concentration in CD1 mouse at 30 mg/kg, po measured at 60 mins by reversed-phase UPLC/MS analysis; assay type: ADME, organism-based; design: dose 30 mg/kg, route oral
[3] = Total plasma concentration in CD1 mouse at 50 mg/kg, po measured at 60 mins by reversed-phase UPLC/MS analysis; assay type: ADME, organism-based; design: dose 50 mg/kg, route oral
[4] = tested on: Mus musculus; assay: AUC in CD1 mouse at 10 mg/kg, iv; assay type: ADME, organism-based, Plasma; design: dose 10 mg/kg, route intravenous; details: in vivo
[5] = tested on: Mus musculus; assay: AUC in CD1 mouse at 30 mg/kg, po; assay type: ADME, organism-based, Plasma; design: dose 30 mg/kg, route oral; details: in vivo
[6] = Half life in CD1 mouse at 30 mg/kg, po; assay type: ADME, organism-based; design: dose 30 mg/kg, route oral; details: in vivo
[7] = Tmax in CD1 mouse at 30 mg/kg, po; assay type: ADME, organism-based; design: dose 30 mg/kg, route oral; details: in vivo
[8] = Cmax in CD1 mouse at 30 mg/kg, po; assay type: ADME, organism-based; design: dose 30 mg/kg, route oral; details: in vivo
[9] = Total plasma concentration in CD1 mouse at 50 mg/kg, po measured at 20 mins by reversed-phase UPLC/MS analysis; assay type: ADME, organism-based; design: dose 50 mg/kg, route oral
[10] = Oral bioavailability in CD1 mouse at 30 mg/kg; assay type: ADME, organism-based; details: in vivo
[11] = Stability in simulated gastric fluid at 10 uM at pH 1 measured at 15 mins; assay type: ADME; details: read-out: Stability
[12] = tested on: Mus musculus; assay: Total plasma concentration in CD1 mouse assessed as (2R,3R,4R,5R,6R)-5-acetamido-4-amino-2,3-difluoro-6-((1R,2R)-1,2,3-trihydroxypropyl)tetrahydro-2H-pyran-2-carboxylic acid at 30 mg/kg, po measured at 20 mins by reversed-phase UPLC/MS analysis; assay type: ADME, organism-based; design: dose 30 mg/kg, route oral; details: in vivo
[13] = tested on: Mus musculus; assay: Total plasma concentration in CD1 mouse assessed as (2R,3R,4R,5R,6R)-5-acetamido-4-amino-2,3-difluoro-6-((1R,2R)-1,2,3-trihydroxypropyl)tetrahydro-2H-pyran-2-carboxylic acid at 30 mg/kg, po measured at 60 mins by reversed-phase UPLC/MS analysis; assay type: ADME, organism-based; design: dose 30 mg/kg, route oral; details: in vivo, 1 h
[14] = tested on: Mus musculus; assay: Cmax in CD1 mouse assessed as (2R,3R,4R,5R,6R)-5-acetamido-4-amino-2,3-difluoro-6-((1R,2R)-1,2,3-trihydroxypropyl)tetrahydro-2H-pyran-2-carboxylic acid at 30 mg/kg, po; assay type: ADME, organism-based; design: dose 30 mg/kg, route oral; details: in vivo
[15] = tested on: Mus musculus; assay: AUC in CD1 mouse assessed as (2R,3R,4R,5R,6R)-5-acetamido-4-amino-2,3-difluoro-6-((1R,2R)-1,2,3-trihydroxypropyl)tetrahydro-2H-pyran-2-carboxylic acid at 30 mg/kg, po; assay type: ADME, organism-based, Plasma; design: dose 30 mg/kg, route oral; details: in vivo
[16] = Stability in simulated gastric fluid at 10 uM at pH 1 measured at 60 mins; assay type: ADME; details: read-out: Stability
[17] = Metabolic stability in mouse plasma at 10 uM measured at 15 mins; assay type: ADME, cell-free; details: read-out: Stability
[18] = Stability in simulated gastric fluid at 10 uM at pH 4 measured at 15 mins; assay type: ADME; details: read-out: Stability
[19] = tested on: Mus musculus; assay: Oral bioavailability in CD1 mouse assessed as (2R,3R,4R,5R,6R)-5-acetamido-4-amino-2,3-difluoro-6-((1R,2R)-1,2,3-trihydroxypropyl)tetrahydro-2H-pyran-2-carboxylic acid at 30 mg/kg; assay type: ADME, organism-based; details: in vivo
[20] = Stability in simulated gastric fluid at 10 uM at pH 4 measured at 60 mins; assay type: ADME; details: read-out: Stability
[21] = tested on: Mus musculus; assay: Tmax in CD1 mouse assessed as (2R,3R,4R,5R,6R)-5-acetamido-4-amino-2,3-difluoro-6-((1R,2R)-1,2,3-trihydroxypropyl)tetrahydro-2H-pyran-2-carboxylic acid at 30 mg/kg, po; assay type: ADME, organism-based; design: dose 30 mg/kg, route oral; details: in vivo
[22] = Metabolic stability in mouse plasma at 10 uM measured at 60 mins; assay type: ADME, cell-free; details: read-out: Stability
[23] = tested on: Mus musculus; assay: Prodrug conversion in CD1 mouse assessed as formation of (2R,3R,4R,5R,6R)-5-acetamido-4-amino-2,3-difluoro-6-((1R,2R)-1,2,3-trihydroxypropyl)tetrahydro-2H-pyran-2-carboxylic acid at 30 mg/kg, po; assay type: ADME, organism-based; design: dose 30 mg/kg, route oral; details: in vivo

SMILES	remaining at 0.25 h, 10 µM [11] [%]	concentration [12] [µM]	concentration [13] [µM]	Cmax [14] [µM]	AUC [15] [µmol·min]	remaining at 1 h, 10 µM [16] [%]	remaining at 0.25 h, 10 µM [18] [%]	F [19] [%]	remaining at 1 h, 10 µM [20] [%]	Tmax [21] [h]	also measured
CC(=O)N[C@@H]1[C@@H](N)[C@@H](F)[C@](F)(C(=O)O)O[C@H]1[C@H](O)[C@H](O)CO											concentration at 20 min [1]: 2.7 µM; concentration at 1 h [2]: 4.93 µM; concentration at 1 h [3]: 8.21 µM; AUC [4]: 3394 µmol·min; AUC [5]: 320 µmol·min; half-life [6]: 3.27 h; Tmax [7]: 0.333 h; Cmax [8]: 2.8 µM; concentration at 20 min [9]: 4.5 µM; bioavailability [10]: 3.1%
COC(=O)[C@]1(F)O[C@@H]([C@H](O)[C@H](O)CO)[C@H](NC(C)=O)[C@@H](N)[C@H]1F	100	6.44	5.34	1.6	219	75	100	2.2	99	1	remaining at 0.25 h, 10 µM [17]: 90%; remaining at 1 h, 10 µM [22]: 6%
CC(=O)N[C@@H]1[C@@H](N)[C@@H](F)[C@](F)(C(=O)OC(C)C)O[C@H]1[C@H](O)[C@H](O)CO	100	12.2	13	0.5	78	98	99	0.9	99	1	remaining at 0.25 h, 10 µM [17]: 100%; remaining at 1 h, 10 µM [22]: 87%
CCCCCOC(=O)[C@]1(F)O[C@@H]([C@H](O)[C@H](O)CO)[C@H](NC(C)=O)[C@@H](N)[C@H]1F	99	2.74	3.5	4.7	462	96	100	5.5	100	1	remaining at 0.25 h, 10 µM [17]: 81%; remaining at 1 h, 10 µM [22]: 24%
CC(=O)N[C@@H]1[C@@H](N)[C@@H](F)[C@](F)(C(=O)OCC2CCCCC2)O[C@H]1[C@H](O)[C@H](O)CO	100	3.41	4.67	1.2	736	100	100	9.3	100	1	remaining at 0.25 h, 10 µM [17]: 98%; remaining at 1 h, 10 µM [22]: 64%
CC(=O)N[C@@H]1[C@@H](N)[C@@H](F)[C@](F)(C(=O)OCC(=O)N(C)C)O[C@H]1[C@H](O)[C@H](O)CO	53	5.69	4.39			25	88		74		
COC(=O)[C@]1(F)O[C@@H]([C@H](O)[C@H](O)COC(=O)OCC(C)C)[C@H](NC(C)=O)[C@@H](N)[C@H]1F	90	9.93	11.3	2.7	293	74	98	3.9	86	1	remaining at 0.25 h, 10 µM [17]: 81%; remaining at 1 h, 10 µM [22]: 17%
CCCCCCCCOC(=O)OC[C@@H](O)[C@@H](O)[C@@H]1O[C@@](F)(C(=O)OC)[C@H](F)[C@H](N)[C@H]1NC(C)=O	99	2.97	6.88	4.1	452	90	94	6.7	88	1	
COC(=O)[C@]1(F)O[C@@H]([C@H](O)[C@H]2COC(C)(C)O2)[C@H](NC(C)=O)[C@@H](N)[C@H]1F		2.57	4.86								Drug metabolism [23]: metabolite_detected
COC(=O)[C@]1(F)O[C@@H]([C@H](O)[C@H]2COC(=O)O2)[C@H](NC(C)=O)[C@@H](N)[C@H]1F		0.35	0.73								
COC(=O)[C@]1(F)O[C@@H]([C@H](O)[C@H](O)COC(=O)OC(C)C)[C@H](NC(C)=O)[C@@H](N)[C@H]1F		1.68	2.69								
COC(=O)[C@]1(F)O[C@@H]([C@H](O)[C@H](O)COC(=O)OCC(C)(C)C)[C@H](NC(C)=O)[C@@H](N)[C@H]1F		2.1	6.01								
COC(=O)[C@]1(F)O[C@@H]([C@H](O)[C@H](O)COC(=O)OCC2c3ccccc3-c3ccccc32)[C@H](NC(C)=O)[C@@H](N)[C@H]1F		0.62	0.75								
COC(=O)[C@]1(F)O[C@@H]([C@H](O)[C@H](O)COP(=O)(OC)OC)[C@H](NC(C)=O)[C@@H](N)[C@H]1F		0.96	0.62								
CCOP(=O)(OCC)OC[C@@H](O)[C@@H](O)[C@@H]1O[C@@](F)(C(=O)OC)[C@H](F)[C@H](N)[C@H]1NC(C)=O		1	2.55								
CCOC(=O)C1=C[C@@H](OC(CC)CC)[C@H](NC(C)=O)[C@@H](N)C1 [OSELTAMIVIR]											concentration at 20 min [1]: 8.41 µM; concentration at 1 h [2]: 13.3 µM; AUC [5]: 1706 µmol·min; half-life [6]: 1.23 h; Tmax [7]: 0.5 h; Cmax [8]: 13.5 µM; bioavailability [10]: 64.5%
CC(=O)N[C@H]1[C@H]([C@H](O)[C@H](O)CO)OC(C(=O)O)=C[C@@H]1N=C(N)N [ZANAMIVIR]											concentration at 20 min [1]: 1.31 µM; concentration at 1 h [2]: 1.3 µM
